# Source: patent US12384769B2, “Heteroaryl-substituted aminoalkyl azole compounds as pesticides” (Elanco Animal Health GmbH, priority 2019, dated 2025)
# What was measured:
# Format in all cases: in vivo
# [1] = tested on: Rhipicephalus microplus (strain Parkhurst, resistant against synthetic pyrethroids); test: Rhipicephalus microplus in-vitro contact test, larval cattle tick (BOOPMI Contact); settings: 5 μg/cm^2 (=500 g/ha), after 48 hours, read-out: activity (efficacy, larvae dead or moribund)
# In short: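 Glass tubes coated with compound in acetone (900 ppm giving 5 μg/cm²), dried, then loaded with 20-50 pyrethroid-resistant Parkhurst larvae and held at 27 °C, 85% RH. After 48 h negative geotaxis is scored; efficacy in % dead or moribund larvae.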
# Ctenocephalides felis [2] = test: Ctenocephalides felis oral test (CTECFE); settings: 48 h, 100 ppm in cattle blood, after 2 days
# In short: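 About 20 adult unfed fleas fed through parafilm on cattle blood held at 37° C and dosed with compound from a DMSO concentrate; flea chamber at room temperature. Percent mortality scored after 2 days.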
# Nilaparvata lugens = Nilaparvata lugens spray test; settings: 96 h, rice plants, after 4 days
# Protocol: Nilaparvata lugens—Spray Test
# (§1) Solvent: 78.0 parts by weight of acetone • • 1.5 parts by weight of dimethylformamide
# (§2) Emulsifier: alkylarylpolyglycol ether
# (§3) To produce a suitable preparation of active compound, 1 part by weight of active compound is mixed with the stated amount of solvents and is diluted with water, containing an emulsifier concentration of 1000 ppm, to the desired concentration. Further test concentrations are prepared by dilution with emulsifier containing water.
# Rice plants (Oryza sativa) are sprayed with a preparation of the active ingredient of the desired concentration and the plants are infested with the brown planthopper (Nilaparvata lugens).
# After 4 days mortality in % is determined. 100% means all planthoppers have been killed and 0% means none of the planthoppers have been killed.
# Ctenocephalides felis [3] = test: Ctenocephalides felis in-vitro contact test, adult cat flea; settings: 5 μg/cm^2 (=500 g/ha), after 48 hours, read-out: activity (efficacy, fleas dead or moribund)
# In short: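 Acetone solutions coated onto inner walls of glass tubes; 900 ppm gives 5 μg/cm^2. After drying, 5-10 adult Ctenocephalides felis per tube held 48 h at room temperature. Fleas then placed on 45-50° C. plate for up to 5 min; those unable to climb away scored dead or moribund, efficacy as % dead/moribund.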
# Rhipicephalus sanguineus = Rhipicephalus sanguineus in-vitro contact test, adult brown dog ticks (RHIPSA Contact); settings: 5 μg/cm^2 (=500 g/ha), after 48 hours, read-out: activity (efficacy, ticks dead or moribund)
# In short: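 Acetone solution coated onto glass tube walls; 900 ppm gives 5 μg/cm^2. After drying, 5-10 adult ticks per tube kept at room temperature for 48 h, then placed on a 45-50° C heating plate up to 5 min; ticks unable to climb away counted dead or moribund, efficacy as % affected.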
# Diabrotica balteata = Diabrotica balteata spray test; settings: 168 h, wheat seeds, after 7 days, read-out: activity (efficacy, seedlings grown); for pest or weed control at 160 µg/disc, 500 g/ha: 500 g/ha (=160 μg/well)
# In short: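 Germinated wheat seedlings (5 per well, on agar) sprayed with compound in acetone/DMF with emulsifier-containing water, then infested with 10–20 Diabrotica balteata larvae. Efficacy (%) scored after 7 days from seedling growth: 100% = growth as untreated uninfested control, 0% = no seedlings grown.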
# Myzus persicae [4] = test: Myzus persicae spray test; settings: foliar, 120 h, 100 g/ha, Chinese cabbage leaf disks, after 5 days
# Protocol: Myzus persicae—Spray Test
# (§4) Solvent: 78.0 parts by weight acetone • 1.5 parts by weight dimethylformamide
# as §2, §3
# Chinese cabbage (Brassica pekinensis) leaf disks infected with all instars of the green peach aphid (Myzus persicae), are sprayed with a preparation of the active ingredient of the desired concentration.
# (§5) After 5 days mortality in % is determined. 100% means all aphids have been killed and 0% means none of the aphids have been killed.
# Nezara viridula = Nezara viridula spray test; settings: 96 h, barley plants, after 4 days
# Protocol: Nezara viridula—Spray Test
# as §1, §2
# as §3, with “solvent,” for “solvents”, “and the concentrate” for “and”
# Barley plants (Hordeum vulgare) are sprayed with a test solution containing the desired concentration of the active ingredient and are infested with larvae of the southern green stink bug (Nezara viridula).
# After 4 days, mortality in % is determined. 100% means all the stink bugs have been killed; 0% means none of the stink bugs have been killed.
# Spodoptera frugiperda = Spodoptera frugiperda spray test; settings: in Zea mays, 168 h, read-out: activity (mortality)
# In short: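 Compound in acetone/DMF, diluted in water with 1000 ppm alkylarylpolyglycol ether emulsifier, sprayed on maize leaf sections. Dried leaves infested with fall armyworm larvae; % mortality after 7 days (100% = all killed, 0% = none).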
# Tetranychus urticae = Tetranychus urticae spray test OP-resistant; settings: foliar, 144 h, 100 g/ha, French bean leaf disks, after 6 days
# Protocol: Tetranychus urticae—Spray Test OP-Resistant
# as §4, §2, §3
# French bean (Phaseolus vulgaris) leaf disks infected with all instars of the two spotted spidermite (Tetranychus urticae) are sprayed with a preparation of the active ingredient of the desired concentration.
# After 6 days mortality in % is determined. 100% means all spider mites have been killed and 0% means none of the spider mites have been killed.
# Boophilus microplus = Boophilus microplus injection test (BOOPMI Injection); settings: Rhipicephalus microplus, 168 h, injection into adult engorged female ticks, egg deposition after 7 days, read-out: activity (efficacy, infertile eggs)
# In short: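 Adult engorged female ticks (5 per group) injected into the abdomen with 1 μL compound in DMSO, then held in a climate chamber. Fertile egg deposition scored after 7 days, with unclear eggs kept until hatching (~42 days). Efficacy 100% = all eggs infertile, 0% = all fertile.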
# Myzus persicae [5] = test: Myzus persicae oral test; settings: 120 h, after 5 days
# Protocol: Solvent: 100 parts by weight acetone
# Afterwards the plates are sealed with parafilm through which a mixed population of the green peach aphid (Myzus persicae) can suck on the compound preparation.
# as §5
# [6] = tested on: Aedes aegypti strain MONHEIM; test: Aedes aegypti test (AEDSAE surface treatment & contact assay); settings: 30 minutes exposure, 24 hours after contact, read-out: efficacy (mortality)
# Protocol: Aedes aegypti Test (AEDSAE Surface Treatment & Contact Assay)
# (§6) Solvent: Aceton+2000 ppm rapeseed oil methyl ester (RME)
# (§7) In order to produce a sufficient, active ingredient containing solution it is necessary to solve the test compound in the solvent-mix (acetone at 2 mg/mL/RME 2000 ppm). This solution is pipetted onto a glazed tile and after evaporation of the acetone, adult mosquitoes of the species Aedes aegypti strain MONHEIM are placed onto the dried surface. The exposure time is 30 minutes.
# (§8) Mortality in percent (%) is determined 24 hours after contact of the insects to the treated surface. 100% mortality means that all tested insects are dead, whereas 0% means that no insect died.
# [7] = tested on: Anopheles funestus strain FUMOZ-R; test: Anopheles funestus test (ANPHFU surface treatment & contact assay); settings: 30 minutes exposure, 24 hours after contact, read-out: efficacy (mortality)
# Protocol: Anopheles funestus Test (ANPHFU Surface Treatment & Contact Assay)
# as §6
# as §7, with “Anopheles funestus” for “Aedes aegypti”, “FUMOZ-R (Hunt et al., Med. Vet. Entomol. 2005 September; 19(3): 271-275)” for “MONHEIM”
# as §8
# [8] = tested on: Musca domestica strain WHO-N; test: Musca domestica test (MUSCDO surface treatment & contact assay); settings: 30 minutes exposure, 24 hours after contact, read-out: efficacy (mortality)
# Protocol: Musca domestica Test (MUSCDO Surface Treatment & Contact Assay)
# as §6
# as §7, with “flies” for “mosquitoes”, “Musca domestica” for “Aedes aegypti”, “WHO—N” for “MONHEIM”
# as §8
# [9] = surface concentration 4 mg/m^2, glazed tile
# [10] = surface concentration 20 mg/m^2, glazed tile
compound,measurement,setting,value
Cc1cc2oc(N[C@@H](C)c3ncnn3-c3ncccn3)nc2cc1Br [Example I-007],pest or weed control at 5 µg/cm2,[1],100%
same,mortality at 100 ppm,Ctenocephalides felis [2],100%
same,mortality at 500 g/ha,Nilaparvata lugens,100%
"C[C@H](Nc1nc2cc(OC(F)(F)F)c(Cl)cc2o1)c1ncnn1-c1ncc(Br)cn1 [Example I-085, N-{(1S)-1-[1-(5-Brompyrimidin-2-yl)-1H-1,2,4-triazol-5-yl]ethyl}-6-chlor-5(trifluormethoxy)-1,3-benzoxazol-2-amin]",pest or weed control at 5 µg/cm2,[1],100%
same,"pest or weed control at 5 µg/cm2, 5 µg/cm2",Ctenocephalides felis [3],100%
same,"pest or weed control at 5 µg/cm2, 5 µg/cm2",Rhipicephalus sanguineus,100%
same,pest or weed control at 100 g/ha,Diabrotica balteata,100%
same,mortality at 100 g/ha,Myzus persicae [4],90%
same,mortality at 100 g/ha,Nezara viridula; 100 g/ha,100%
same,mortality at 100 g/ha,Spodoptera frugiperda,100%
same,mortality at 100 g/ha,Tetranychus urticae,90%
C[C@H](Nc1nc2ccccc2s1)c1ncnn1-c1ncccn1 [Example I-009],"pest or weed control at 160 µg/disc, 500 g/ha",Diabrotica balteata,80%
same,mortality at 500 g/ha,Nilaparvata lugens,100%
C[C@H](Nc1nc2cc(C(F)(F)F)c(Cl)cc2o1)c1ncnn1-c1ccc(C#N)cn1 [Example I-017],pest or weed control at 0.004 mg,Boophilus microplus; 4 μg/animal,100%
same,pest or weed control at 0.02 mg,Boophilus microplus; 20 μg/animal,100%
same,pest or weed control at 5 µg/cm2,[1],100%
same,"pest or weed control at 5 µg/cm2, 5 µg/cm2",Ctenocephalides felis [3],100%
same,pest or weed control at 100 g/ha,Diabrotica balteata,100%
same,"pest or weed control at 160 µg/disc, 500 g/ha",Diabrotica balteata,100%
same,mortality at 4 ppm,Myzus persicae [5],90%
same,mortality at 500 g/ha,Nezara viridula; 500 g/ha,100%
same,mortality at 100 g/ha,Spodoptera frugiperda,100%
same,mortality at 500 g/ha,Spodoptera frugiperda,100%
same,mortality at 4 mg/m2,[6]; [9],85 to 100%
same,mortality at 20 mg/m2,[6]; [10],90 to 100%
same,mortality at 4 mg/m2,[7]; [9],85 to 100%
same,mortality at 20 mg/m2,[7]; [10],90 to 100%
same,mortality at 4 mg/m2,[8]; [9],90 to 100%
same,mortality at 20 mg/m2,[8]; [10],90 to 100%
